tested on: Guinea pig's skin; experiment: Skin penetration with Frantz cell, HPLC determination; type: in vitro ADME
Method: Skin penetration was evaluated for Guinea pig's skin with Frantz cell. Before test, abdominal part, a piece of skin as large as 1 cm^2 square was excised. The excised skin was mounted on a Frantz cell with the diameter of 0.9 cm and fixed with clamp. 0.5 ml of test sample (in case of Examples 1˜9 and C. Examples 1˜6, 0.05 ml of sample and distilled water; and in case of Formulations 1˜30 and C. Formulations 1˜15, 0.5 ml of sample only) was placed on one side of skin (donor side). The other side (receiver side) was filled with mixture of distilled water and ethanol (4:1 weight ratio). Test was performed at 32° C., which is skin temperature. Test solvent was sampled at predetermined time intervals from the receiver side, and the amounts of penetrated compound K, ginsenoside F1 and compound Y were determined by HPLC system. The data were indicated in penetrated amount per applied concentration (μg/cm^2/wt %).
In case of purified ginseng saponin, the amount of penetrated saponin was determined. Also, in case of Bio GF1K, the amounts of penetrated compound K, ginsenoside F1 and compound Y were determined and total penetrated amounts were calculated by sum of each peak.
<HPLC Analytic Condition> • Column: C18 (ODS) • Solvent Flow: 1 ml/min • Detection UV: 203 nm • Sample test concentration 5 mg/ml • Sample injection amount: 10 μg • Eluent: Gradient condition • A: Acetonitrile/D.I. water=15/85 • B: Acetonitrile/D.I. water=80/20
<Solvent Gradient Condition>

| Structure (SMILES) | skin penetration (comparison in words) |
| --- | --- |
| CC(C)=CCC[C@](C)(O[C@@H]1O[C@H](CO)[C@@H](O)[C@H](O)[C@H]1O)[C@H]1CC[C@]2(C)[C@@H]1[C@H](O)C[C@@H]1[C@@]3(C)CC[C@H](O)C(C)(C)[C@@H]3CC[C@]12C [compound K, 20-O-β-D-glucopyranosyl-20(S)-protopanaxadiol] | superior effects on skin penetration to purified ginseng saponin |
| CC(C)=CCC[C@](C)(O[C@@H]1O[C@H](CO[C@@H]2OC[C@H](O)[C@H](O)[C@H]2O)[C@@H](O)[C@H](O)[C@H]1O)[C@H]1CC[C@]2(C)[C@@H]1[C@H](O)C[C@@H]1[C@@]3(C)CC[C@H](O)C(C)(C)[C@@H]3CC[C@]12C [compound Y, 20-O-[α-L-arabinopyranosyl(1→6)-β-D-glucopyranosyl]-20(S)-protopanaxadiol] | superior effects on skin penetration to purified ginseng saponin |
| CC(C)=CCC[C@](C)(O[C@@H]1O[C@H](CO)[C@@H](O)[C@H](O)[C@H]1O)[C@H]1CC[C@]2(C)[C@@H]1[C@H](O)C[C@@H]1[C@@]3(C)CC[C@H](O)C(C)(C)[C@@H]3[C@@H](O)C[C@]12C [ginsenoside F1, 20-O-β-D-glucopyranosyl-20(S)-protopanaxatriol] | superior effects on skin penetration to purified ginseng saponin |

Reference: patent publication US8263565B2, “Nanoemulsion comprising metabolites of ginseng saponin as an active component and a method for preparing the same, and a skin-care composition for anti-aging containing the same” (Amorepacific Corporation, priority 2002, dated 2012)
